Data: patent US11406683B2, “Compounds and therapeutics uses thereof” (Centauri Therapeutics Limited (GB/GB), priority 2017, dated 2022)
Bridge positions count the residues as written; N and C are the ends. Square brackets hold non-standard residues; d marks the D form. Side chains are listed from the residue outwards. Peptide text beside a SMILES is read from it. * marks the point of attachment. X1 = C[C@@H]1OC(OCCCC(=O)NCCNC(=O)COc2cc(OCC(=O)NCCNC(=O)CCCOC3O[C@@H](C)C(O)C(O)[C@@H]3O)cc(-c3cc(OCC(=O)NCCNC(=O)CCCOC4O[C@@H](C)C(O)C(O)[C@@H]4O)cc(C(=O)*)c3)c2)[C@@H](O)C(O)C1O; X3 = C[C@@H]1OC(OCCCC(=O)NCCNC(=O)COc2ccc(-c3cccc(C(=O)*)c3)cc2)[C@@H](O)C(O)C1O; Gly(octyl) = CCCCCCCC[C@H](N)C(=O)O; Nonanoyl = CCCCCCCCC(=O)*; X2 = CC[C@H](C)CCCCC(=O)*; Dab = NCC[C@H](N)C(=O)O; Ahx = NCCCCCC(=O)O

Assays:
[1] = system: Pseudomonas Aeruginosa PA01 (ATCC 15692); assay: Flow cytometric antibody recruitment assay using an anti-Rhamnose antibody; type: cell-based; conditions: 40 μM substance; MFI (PE) over vehicle control; human anti-Rhamnose IgG polyclonal antibody 42 μg/mL; binding to bacterial surface
Description: Flow Cytometric Antibody Recruitment Assay Using an Anti-Rhamnose Antibody
A secondary fluorescently labelled anti-IgG antibody was used to detect the anti-Rhamnose antibody binding.
The assays were carried out in polystyrene 96-well U bottom plates (Costar) blocked with 200 μl of Casein blocking buffer for 1 hour at room temperature (Fisher 37528). Pseudomonas Aeruginosa PA01 (ATCC 15692) was grown in LB broth, Miller (Fisher BP1426-500) to late exponential phase. Subsequently, the bacteria were washed once with Hank's Balanced Salt Solution with calcium and magnesium (HBSS+/+) and then resuspended in HBSS+/+ at a bacterial density of 2×10^9 colony forming units (CFU)/mL. […] The bacteria were then washed three times with 200 μL HBSS+/+, prior to adding 50 μL of the human anti Rhamnose IgG polyclonal antibody at a final concentration of 42 μg/mL in HBSS+/+. The samples were incubated for 1 hour at room temperature shaking at 450 rpm. The bacteria were washed three times as above, prior to adding 100 μL of a PE-labeled anti-human IgG Fc secondary antibody (Biolegend 409304) at 10 μg/mL in HBSS+/+ and incubating at room temperature for 1 hour at 450 rpm. After three final washes with 200 μL HBSS+/+, the bacteria were resuspended in 200 μL HBSS+/+ and evaluated for anti-Rhamnose antibody binding on a Cytoflex flow cytometer (Beckman Coulter). 50,000 counts of bacterial particles were sampled and the median fluorescent shift was recorded in the PE-A channel. Data from all samples were analysed using Kaluza software (Beckman Coulter).
The fold shift over background was calculated by dividing the Median Fluorescent Intensity (MFI) obtained in the presence of 40 μM of the Example compounds by the MFI value obtained in the vehicle controls, i.e., the absence of Examples. The higher the fold shift over background, the more anti-Rhamnose was bound to the bacterial surface. The shift in fluorescence intensity (PE) occurs due to the binding event at each end of the molecule.

[2] = system: E. coli K1:O18ac:H7 (ATCC 700973); assay: Flow cytometric complement deposition assay with human serum; type: cell-based; conditions: MFI (APC) over vehicle, 25% pooled human serum, 37° C., 20 min; for C3b deposition (5 μM, Average fold change): 5 μM compound, C3b/iC3b on bacterial surface
Description: Flow Cytometric Complement Deposition Assay with Human Serum
The assays were carried out in polystyrene 96-well U bottom plates (Costar). E. coli K1:O18ac:H7 (American Type Culture Collection, ATCC 700973) was grown in LB broth, Miller (Fisher BP1426-500) to late exponential phase. Subsequently, the bacteria were washed in Hank's Balanced Salt Solution with calcium and magnesium (HBSS+/+) and then resuspended in assay buffer, i.e., PBS with 1% bovine serum albumin (BSA, Sigma A2153) at a concentration of 2×10^9 CFU/mL. […] Subsequently, 150 μL ice-cold HBSS+/+ was added, the bacteria were pelleted and then washed once with 200 μL HBSS+/+, prior to adding 100 μL of pooled human serum (Innovate Research IPLA-CSER) as anti-Rhamnose antibody and complement source in PBS, 1% BSA to a final serum concentration of 25%. Bacteria were incubated at 37° C. for 20 min to allow for anti-Rhamnose binding to the compounds and complement deposition. 100 μL ice-cold HBSS+/+ was added to each well to stop the reaction. The bacteria were pelleted by centrifugation at 4° C. and the supernatants discarded. The bacteria were then washed two times with 200 μL refrigerated HBSS+/+, prior to adding 100 μL of APC-labelled anti-human C3b/iC3b antibody (Biolegend 846106; clone 3E7/C3b) at 1:25 dilution in PBS, 1% BSA and incubated at 4° C. for 45 min. After three final washes with 200 μL HBSS+/+, the bacteria were resuspended in HBSS+/+ and their fluorescence profile as an indicator for complement deposition evaluated on a Cytoflex flow cytometer (Beckman Coulter). The median fluorescent intensity (MFI) was recorded in the APC channels. Data from all samples were analysed using Kaluza software (Beckman Coulter).
The fold shift over background was calculated by dividing the MFI obtained in the presence of the Examples (5 μM) by the MFI obtained in the absence of Examples, i.e., in the presence of vehicle. The shift in fluorescence intensity (APC) occurred due to detection of covalently bound complement components C3b/iC3b to the surface of the bacteria.

SMILES | IgG Recruitment (40 μM, Average fold change) [1] [fold change] | C3b deposition (5 μM, Average fold change) [2] [fold change] | C3b deposition (Average fold change) ([2]; 20 μM PmxB) [fold change]
CCCCCCCC[C@H](NC(=O)CCCCCNC(=O)CCCCCNC(=O)c1cccc(-c2ccc(OCC(=O)NCCNC(=O)CCCOC3O[C@@H](C)C(O)C(O)[C@@H]3O)cc2)c1)C(=O)N[C@@H](CCN)C(=O)N[C@H](C(=O)N[C@@H](CCN)C(=O)N[C@H]1CCNC(=O)[C@H]([C@@H](C)O)NC(=O)[C@H](CCN)NC(=O)[C@H](CCN)NC(=O)[C@H](CC(C)C)NC(=O)[C@@H](Cc2ccccc2)NC(=O)[C@H](CCN)NC1=O)[C@@H](C)O (some centres unmarked) [Example 1] ({X3-Ahx-Ahx}-[Gly(octyl)][Dab]T[Dab][Dab][Dab][dF]L[Dab][Dab]T; lactam 5-C) | 77.7 | 109.8 | 
CCCCCCCC[C@H](NC(=O)CCCCCNC(=O)CCCCCNC(=O)c1cc(OCC(=O)NCCNC(=O)CCCOC2O[C@@H](C)C(O)C(O)[C@@H]2O)cc(-c2cc(OCC(=O)NCCNC(=O)CCCOC3O[C@@H](C)C(O)C(O)[C@@H]3O)cc(OCC(=O)NCCNC(=O)CCCOC3O[C@@H](C)C(O)C(O)[C@@H]3O)c2)c1)C(=O)N[C@@H](CCN)C(=O)N[C@H](C(=O)N[C@@H](CCN)C(=O)N[C@H]1CCNC(=O)[C@H]([C@@H](C)O)NC(=O)[C@H](CCN)NC(=O)[C@H](CCN)NC(=O)[C@H](CC(C)C)NC(=O)[C@@H](Cc2ccccc2)NC(=O)[C@H](CCN)NC1=O)[C@@H](C)O (some centres unmarked) [Example 2] ({X1-Ahx-Ahx}-[Gly(octyl)][Dab]T[Dab][Dab][Dab][dF]L[Dab][Dab]T; lactam 5-C) | 3.4 | 148.1 | 
CCCCCCCCC(=O)N[C@@H](CCNC(=O)CCCCCNC(=O)CCCCCNC(=O)c1cccc(-c2ccc(OCC(=O)NCCNC(=O)CCCOC3O[C@@H](C)C(O)C(O)[C@@H]3O)cc2)c1)C(=O)N[C@H](C(=O)N[C@@H](CCN)C(=O)N[C@H]1CCNC(=O)[C@H]([C@@H](C)O)NC(=O)[C@H](CCN)NC(=O)[C@H](CCN)NC(=O)[C@H](CC(C)C)NC(=O)[C@@H](Cc2ccccc2)NC(=O)[C@H](CCN)NC1=O)[C@@H](C)O (stereo partly drawn) [Example 5] (Nonanoyl-[Dab]([Ahx-Ahx-X3])T[Dab][Dab][Dab][dF]L[Dab][Dab]T; lactam 4-C) | 8.45 | 20.5 | 
CC[C@H](C)CCCCC(=O)N[C@@H](CCN)C(=O)N[C@H](C(=O)N[C@@H](CCN)C(=O)N[C@H]1CCNC(=O)[C@H]([C@@H](C)O)NC(=O)[C@H](CCN)NC(=O)[C@H](CCN)NC(=O)[C@H](CC(C)C)NC(=O)[C@@H](Cc2ccccc2)NC(=O)[C@H](CCN)NC1=O)[C@@H](C)O [Polymyxin B, reference compound] (X2-[Dab]T[Dab][Dab][Dab][dF]L[Dab][Dab]T; lactam 4-C) | 1.58 |  | 24.535
